Experiment: Lethal dose in mice
Assay type: toxicity
Conditions: mouse, in vivo

CISPLATIN
LD50: 10 mg/kg

From ChEMBL document CHEMBL1133859, “Unprecedented sugar-dependent in vivo antitumor activity of carbohydrate-pendant cis-diamminedichloroplatinum(II) complexes” (Bioorg Med Chem Lett, 2001)
